Reference: patent US20230085307A1, “PYRIDAZINONE COMPOUND AND HERBICIDE” (NISSAN CHEMICAL CORPORATION, priority 2019, published 2023)

Tests used:
[1] = tested on: blackgrass; experiment: Test Example 4: herbicidal effect by soil treatment (Table 19, symbol J); format: in vivo, blackgrass (Alopecurus myosuroides); settings: amount of applied herbicide 320 g/ha
In short: (§1)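 Step 1: sow seeds in sterilized diluvial soil, cover ~1.5 cm. Step 2: spray diluted emulsion onto soil surface at predetermined rate. Step 3: greenhouse, 25–30° C, three weeks. Step 4: grade effect on each plant by earlier criteria.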

[2] = tested on: persian speedwell; experiment: Test Example 5: herbicidal effect by foliage application, plastic box (Table 20, symbol R); format: in vivo, Persian speedwell (Veronica persica); settings: amount of applied herbicide 320 g/ha; foliage application after 14-day growth; evaluated three weeks after application
In short: (§2)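 Foliar spray test: emulsion formulation diluted in water to a set application rate, sprayed onto 14-day-old plants raised in diluvial soil at 25° C to 30° C under glass. Both herbicidal effect and crop effect rated visually three weeks later.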

[3] = tested on: chickweed; experiment: Test Example 5: herbicidal effect by foliage application, plastic box (Table 20, symbol P); format: in vivo, common chickweed (Stellaria media); settings: amount of applied herbicide 320 g/ha; foliage application after 14-day growth; evaluated three weeks after application
In short: as §2

[4] = tested on: barnyard grass; experiment: Test Example 4: herbicidal effect by soil treatment (Table 19, symbol H); format: in vivo, barnyard grass (Echinochloa crus-galli); settings: amount of applied herbicide 320 g/ha
In short: as §1

[5] = tested on: rice flat sedge; experiment: Test Example 3: herbicidal effect by foliage application, Wagner pot (Table 18, symbol E); format: in vivo, rice flat sedge (Cyperus iria); settings: 320 g/ha
In short: (§3)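 Plants were sown in alluvial soil held under 0.1–0.5 cm standing water and grown 14 days in a greenhouse at 25–30 °C. An emulsifiable formulation, water-diluted to the set dose, was then sprayed onto the foliage, and effects were scored three weeks later using previously defined criteria.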

[6] = tested on: wild oat; experiment: Test Example 4: herbicidal effect by soil treatment (Table 19, symbol I); format: in vivo, wild oat (Avena fatua); settings: amount of applied herbicide 320 g/ha
In short: as §1

[7] = tested on: southern crabgrass; experiment: Test Example 5: herbicidal effect by foliage application, plastic box (Table 20, symbol F); format: in vivo, southern crabgrass (Digitaria ciliaris); settings: amount of applied herbicide 320 g/ha; foliage application after 14-day growth; evaluated three weeks after application
In short: as §2

[8] = tested on: windgrass; experiment: Test Example 4: herbicidal effect by soil treatment (Table 19, symbol L); format: in vivo, windgrass (Apera spica-venti); settings: amount of applied herbicide 320 g/ha
In short: as §1

[9] = tested on: green foxtail; experiment: Test Example 4: herbicidal effect by soil treatment (Table 19, symbol G); format: in vivo, green foxtail (Setaria viridis); settings: amount of applied herbicide 320 g/ha
In short: as §1

[10] = tested on: Italian ryegrass; experiment: Test Example 4: herbicidal effect by soil treatment (Table 19, symbol K); format: in vivo, Italian ryegrass (Lolium multiflorum); settings: amount of applied herbicide 320 g/ha
In short: as §1

[11] = tested on: Chinese sprangletop; experiment: Test Example 3: herbicidal effect by foliage application, Wagner pot (Table 18, symbol D); format: in vivo, chinese sprangletop (Leptochloa chinensis); settings: 320 g/ha
In short: as §3

[12] = tested on: lambsquarters; experiment: Test Example 4: herbicidal effect by soil treatment (Table 19, symbol O); format: in vivo, lambsquarters (Chenopodium album); settings: amount of applied herbicide 320 g/ha
In short: as §1

[13] = tested on: velvetleaf; experiment: Test Example 4: herbicidal effect by soil treatment (Table 19, symbol M); format: in vivo, velvetleaf (Abutilon theophrasti); settings: amount of applied herbicide 320 g/ha
In short: as §1

[14] = tested on: southern crabgrass; experiment: Test Example 4: herbicidal effect by soil treatment (Table 19, symbol F); format: in vivo, southern crabgrass (Digitaria ciliaris); settings: amount of applied herbicide 320 g/ha
In short: as §1

[15] = tested on: lambsquarters; experiment: Test Example 5: herbicidal effect by foliage application, plastic box (Table 20, symbol O); format: in vivo, lambsquarters (Chenopodium album); settings: amount of applied herbicide 320 g/ha; foliage application after 14-day growth; evaluated three weeks after application
In short: as §2

[16] = tested on: persian speedwell; experiment: Test Example 4: herbicidal effect by soil treatment (Table 19, symbol R); format: in vivo, Persian speedwell (Veronica persica); settings: amount of applied herbicide 320 g/ha
In short: as §1

[17] = tested on: chickweed; experiment: Test Example 4: herbicidal effect by soil treatment (Table 19, symbol P); format: in vivo, common chickweed (Stellaria media); settings: amount of applied herbicide 320 g/ha
In short: as §1

[18] = tested on: blackgrass; experiment: Test Example 5: herbicidal effect by foliage application, plastic box (Table 20, symbol J); format: in vivo, blackgrass (Alopecurus myosuroides); settings: amount of applied herbicide 320 g/ha; foliage application after 14-day growth; evaluated three weeks after application
In short: as §2

[19] = tested on: velvetleaf; experiment: Test Example 5: herbicidal effect by foliage application, plastic box (Table 20, symbol M); format: in vivo, velvetleaf (Abutilon theophrasti); settings: amount of applied herbicide 320 g/ha; foliage application after 14-day growth; evaluated three weeks after application
In short: as §2

[20] = tested on: oval-leafed pondweed; experiment: Test Example 1: herbicidal activity, application before weed generation under submerged conditions (Table 16, symbol C); format: in vivo, oval-leafed pondweed (Monochoria vaginalis); settings: amount of applied herbicide 320 g/ha
In short: (§4)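 Alluvial soil was flooded to 4 cm depth, weed seeds were sown mixed and 2.5-leaf rice seedlings were transplanted. On sowing day, the compound's emulsion, diluted in water to a set dose, was applied to the water surface. Plants grew at 25–30 °C and were scored 0–5 after three weeks.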

[21] = tested on: green foxtail; experiment: Test Example 5: herbicidal effect by foliage application, plastic box (Table 20, symbol G); format: in vivo, green foxtail (Setaria viridis); settings: amount of applied herbicide 320 g/ha; foliage application after 14-day growth; evaluated three weeks after application
In short: as §2

[22] = tested on: redroot pigweed; experiment: Test Example 5: herbicidal effect by foliage application, plastic box (Table 20, symbol N); format: in vivo, redroot pigweed (Amaranthus retroflexus); settings: amount of applied herbicide 320 g/ha; foliage application after 14-day growth; evaluated three weeks after application
In short: as §2

[23] = tested on: barnyard grass; experiment: Test Example 5: herbicidal effect by foliage application, plastic box (Table 20, symbol H); format: in vivo, barnyard grass (Echinochloa crus-galli); settings: amount of applied herbicide 320 g/ha; foliage application after 14-day growth; evaluated three weeks after application
In short: as §2

[24] = tested on: redroot pigweed; experiment: Test Example 4: herbicidal effect by soil treatment (Table 19, symbol N); format: in vivo, redroot pigweed (Amaranthus retroflexus); settings: amount of applied herbicide 320 g/ha
In short: as §1

[25] = tested on: barnyard grass; experiment: Test Example 3: herbicidal effect by foliage application, Wagner pot (Table 18, symbol H); format: in vivo, barnyard grass (Echinochloa crus-galli); settings: 320 g/ha
In short: as §3

[26] = tested on: wild oat; experiment: Test Example 5: herbicidal effect by foliage application, plastic box (Table 20, symbol I); format: in vivo, wild oat (Avena fatua); settings: amount of applied herbicide 320 g/ha; foliage application after 14-day growth; evaluated three weeks after application
In short: as §2

[27] = tested on: late watergrass; experiment: Test Example 1: herbicidal activity, application before weed generation under submerged conditions (Table 16, symbol A); format: in vivo, late watergrass (Echinochloa oryzicola); settings: amount of applied herbicide 320 g/ha
In short: as §4

[28] = tested on: Japanese bulrush; experiment: Test Example 1: herbicidal activity, application before weed generation under submerged conditions (Table 16, symbol B); format: in vivo, Japanese bulrush (Schoenoplectus juncoides); settings: amount of applied herbicide 320 g/ha
In short: as §4

[29] = tested on: windgrass; experiment: Test Example 5: herbicidal effect by foliage application, plastic box (Table 20, symbol L); format: in vivo, windgrass (Apera spica-venti); settings: amount of applied herbicide 320 g/ha; foliage application after 14-day growth; evaluated three weeks after application
In short: as §2

[30] = tested on: Italian ryegrass; experiment: Test Example 5: herbicidal effect by foliage application, plastic box (Table 20, symbol K); format: in vivo, Italian ryegrass (Lolium multiflorum); settings: amount of applied herbicide 320 g/ha; foliage application after 14-day growth; evaluated three weeks after application
In short: as §2

Compound	Herbicidal effect by soil treatment, J: blackgrass [1]	Herbicidal effect by foliage application, R: persian speedwell [2]	Herbicidal effect by foliage application, P: chickweed [3]	Herbicidal effect by soil treatment, H: barnyard grass [4]	herbicidal effect on rice flat sedge (E) [5]	Herbicidal effect by soil treatment, I: wild oat [6]	Herbicidal effect by foliage application, F: southern crabgrass [7]	Herbicidal effect by soil treatment, L: windgrass [8]	Herbicidal effect by soil treatment, G: green foxtail [9]	Herbicidal effect by soil treatment, K: Italian ryegrass [10]	herbicidal effect on Chinese sprangletop (D) [11]	Herbicidal effect by soil treatment, O: lambsquarters [12]	Herbicidal effect by soil treatment, M: velvetleaf [13]	Herbicidal effect by soil treatment, F: southern crabgrass [14]	Herbicidal effect by foliage application, O: lambsquarters [15]	Herbicidal effect by soil treatment, R: persian speedwell [16]	Herbicidal effect by soil treatment, P: chickweed [17]	Herbicidal effect by foliage application, J: blackgrass [18]	Herbicidal effect by foliage application, M: velvetleaf [19]	Herbicidal effect, C: oval-leafed pondweed [20]	further results
CCCC(=O)Oc1c(C)nn(C)c(=O)c1-c1c(-c2ccccc2OC(F)(F)F)sc2c(Cl)cccc12 [4-077]	0 (Herbicidal rate of 5% or less (almost no effect))	5 (Herbicidal rate of 90% or more (almost completely withered))	5 (Herbicidal rate of 90% or more (almost completely withered))	0 (Herbicidal rate of 5% or less (almost no effect))	5 (Herbicidal rate of 90% or more (almost completely withered))	0 (Herbicidal rate of 5% or less (almost no effect))	0 (Herbicidal rate of 5% or less (almost no effect))	0 (Herbicidal rate of 5% or less (almost no effect))	0 (Herbicidal rate of 5% or less (almost no effect))	0 (Herbicidal rate of 5% or less (almost no effect))	4 (Herbicidal rate of 70% or more and less than 90%)	0 (Herbicidal rate of 5% or less (almost no effect))	0 (Herbicidal rate of 5% or less (almost no effect))	0 (Herbicidal rate of 5% or less (almost no effect))	4 (Herbicidal rate of 70% or more and less than 90%)	3 (Herbicidal rate of 40% or more and less than 70%)	0 (Herbicidal rate of 5% or less (almost no effect))	0 (Herbicidal rate of 5% or less (almost no effect))	5 (Herbicidal rate of 90% or more (almost completely withered))	0 (Herbicidal rate of 5% or less (almost no effect))	Herbicidal effect by foliage application, G: green foxtail [21]: 3 (Herbicidal rate of 40% or more and less than 70%); Herbicidal effect by foliage application, N: redroot pigweed [22]: 5 (Herbicidal rate of 90% or more (almost completely withered)); Herbicidal effect by foliage application, H: barnyard grass [23]: 3 (Herbicidal rate of 40% or more and less than 70%); Herbicidal effect by soil treatment, N: redroot pigweed [24]: 3 (Herbicidal rate of 40% or more and less than 70%); herbicidal effect on barnyard grass (H) [25]: 5 (Herbicidal rate of 90% or more (almost completely withered)); Herbicidal effect by foliage application, I: wild oat [26]: 0 (Herbicidal rate of 5% or less (almost no effect)); Herbicidal effect, A: late watergrass [27]: 3 (Herbicidal rate of 40% or more and less than 70%); Herbicidal effect, B: Japanese bulrush [28]: 0 (Herbicidal rate of 5% or less (almost no effect)); Herbicidal effect by foliage application, L: windgrass [29]: 0 (Herbicidal rate of 5% or less (almost no effect)); Herbicidal effect by foliage application, K: Italian ryegrass [30]: 3 (Herbicidal rate of 40% or more and less than 70%)
CCOc1ccccc1-c1sc2c(C)cccc2c1-c1c(O)c(C)nn(C)c1=O [4-112]	2 (Herbicidal rate of 20% or more and less than 40%)	5 (Herbicidal rate of 90% or more (almost completely withered))	5 (Herbicidal rate of 90% or more (almost completely withered))	3 (Herbicidal rate of 40% or more and less than 70%)	5 (Herbicidal rate of 90% or more (almost completely withered))	0 (Herbicidal rate of 5% or less (almost no effect))	4 (Herbicidal rate of 70% or more and less than 90%)	4 (Herbicidal rate of 70% or more and less than 90%)	4 (Herbicidal rate of 70% or more and less than 90%)	3 (Herbicidal rate of 40% or more and less than 70%)	4 (Herbicidal rate of 70% or more and less than 90%)	3 (Herbicidal rate of 40% or more and less than 70%)	3 (Herbicidal rate of 40% or more and less than 70%)	3 (Herbicidal rate of 40% or more and less than 70%)	5 (Herbicidal rate of 90% or more (almost completely withered))	5 (Herbicidal rate of 90% or more (almost completely withered))	3 (Herbicidal rate of 40% or more and less than 70%)	5 (Herbicidal rate of 90% or more (almost completely withered))	5 (Herbicidal rate of 90% or more (almost completely withered))	0 (Herbicidal rate of 5% or less (almost no effect))	Herbicidal effect by foliage application, G: green foxtail [21]: 5 (Herbicidal rate of 90% or more (almost completely withered)); Herbicidal effect by foliage application, N: redroot pigweed [22]: 5 (Herbicidal rate of 90% or more (almost completely withered)); Herbicidal effect by foliage application, H: barnyard grass [23]: 4 (Herbicidal rate of 70% or more and less than 90%); Herbicidal effect by soil treatment, N: redroot pigweed [24]: 4 (Herbicidal rate of 70% or more and less than 90%); herbicidal effect on barnyard grass (H) [25]: 5 (Herbicidal rate of 90% or more (almost completely withered)); Herbicidal effect by foliage application, I: wild oat [26]: 4 (Herbicidal rate of 70% or more and less than 90%); Herbicidal effect, A: late watergrass [27]: 3 (Herbicidal rate of 40% or more and less than 70%); Herbicidal effect, B: Japanese bulrush [28]: 3 (Herbicidal rate of 40% or more and less than 70%); Herbicidal effect by foliage application, L: windgrass [29]: 5 (Herbicidal rate of 90% or more (almost completely withered)); Herbicidal effect by foliage application, K: Italian ryegrass [30]: 4 (Herbicidal rate of 70% or more and less than 90%)
